Reference: patent US11759518B2, “Medicine for treating cancer by administering a toll-like receptor agonist and LAG-3 IgG fusion protein” (NEC CORPORATION, priority 2016, dated 2023)

Assays:
[1] = system: P815 cells (DBA/2mouse-derived mouse mastocytoma); experiment: Comparison of adjuvants in a cancer vaccine with PIA peptide, tumor size and survival; format: in vivo; conditions: DBA/2 mice with P815 tumor, 5 mice per group; PIA CTL i.v. Day 8; adjuvant admixed with PIA peptide 50 μg per mouse s.c. Day 9 and Day 16
From the text: In accordance with the protocol shown in FIG. 1, the effects of adjuvants in cancer vaccines using a cancer-antigen derived peptide were compared.
As cancer model mice, DBA/2 mice, to which P815 cells (DBA/2mouse-derived mouse mastocytoma) were grafted, were put in use.
As a cancer-antigen derived peptide, a peptide (hereinafter referred to as “PIA peptide”) consisting of a partial sequence of PIA protein was used, which is a tumor antigen of P815 tumor and known to be restrictively presented by an MHC H-2Ld. The amino acid sequence of PIA peptide are represented by LPYLGWLVF (SEQ. ID No: 40).
As PIA CTL, a T cell expressing a T cell receptor and recognizing PIA peptide was used. […] Based on the positive ratio, the number of PIA-CTL cells was determined and administered.
As the adjuvants, the following substances were used.
P815 tumor cells were subcutaneously inoculated to DBA/2 mice in an amount of 5×10^5 cells per mouse. The day of inoculation was specified as Day 0. On Day 8, PIA CTL (2.5×10^5 cells per mouse) were intravenously injected. On Day 9 and Day 16, an admixture of PIA peptide (50 μg per mouse) and an adjuvant in PBS was subcutaneously injected. Mice were divided into 9 groups each consisting of 5 mice and the following adjuvants were used, respectively.
Group 2: IFA (50 μL/mouse)
Group 3: PT (1×10^8/mouse)
Group 4: Poly I:C (50 μg/mouse) […]

[2] = system: P815 tumor cells; experiment: Suppression of tumor growth by immunoadjuvant combination, P815 model; format: in vivo, mouse; conditions: DBA/2 mice with P815 tumor, PIA CTL i.v. Day 7
From the text: The following substances were used as adjuvants.
Poly I:C (TLR3 agonist) (Invivogen, SanDiego, USA)
RIBOXXOL (TLR3 agonist) (Riboxx, Radebeul, Germany)
MPL (TLR4 agonist) (Invivogen, SanDiego, USA)
Imiquimod (TLR7/8 agonist) (Invivogen, SanDiego, USA)
CpG (TLR9 agonist) (Invivogen, SanDiego, USA)
LAG-3Ig (Adipogen, SanDiego, USA)
P815 tumor cells were subcutaneously inoculated to DBA/2 mice in an amount of 5×10^5 cells per mouse to prepare cancer model mice. The day of inoculation was specified as Day 0. On Day 7, PIA CTL (2.5×10^5 cells per mouse) were intravenously injected. Day 8 and Day 15, an admixture of PIA peptide (50 μg per mouse) and an adjuvant in PBS was subcutaneously injected. Mice were divided into 9 groups each consisting of 4 or 5 mice and the following adjuvants were used respectively.
Group 1: PIA peptide alone (control)
(§1) Group 2: Poly I:C (50 μg/mouse)
Group 3: Poly I:C (50 μg/mouse)+LAG-3Ig (1 μg/mouse)
Group 4: No PIA peptide, Poly I:C (50 μg/mouse)+LAG-3Ig (1 μg/mouse) alone
Group 5: RIBOXXOL (100 μg/mouse) Group 6: RIBOXXOL (100 μg/mouse)+LAG-3Ig (1 μg/mouse)
Group 7: MPL (10 μg/mouse)+LAG-3Ig (1 μg/mouse) Group 8: Imiquimod (50 μg/mouse)+LAG-3Ig (1 μg/mouse)
Group 9: CpG (10 μg/mouse)+LAG-3Ig (1 μg/mouse)

[3] = system: B16-F10 melanoma cells; experiment: Tumor growth inhibitory effect of immuno-adjuvant combination in B16-F10 melanoma inoculation model mice; format: in vivo, mouse; conditions: C57BL/6 mice with B16-F10 melanoma
Method: To C57BL/6 mice, B16-F10 melanoma cells (1×10^5 cells per mouse) were subcutaneously inoculated to prepare cancer model mice. The day of inoculation was specified as Day 0. On Day 5 and Day 12, twice in total, an admixture of gp100 peptide (50 μg per mouse) and an adjuvant in PBS was subcutaneously injected. The following adjuvants were used in respective mice groups.
Group 1: IFA (50 μL/mouse)
as §1
Group 3: LAG-3Ig (1 μg/mouse)
Group 4: LAG-3Ig (1 μg/mouse)+Poly I:C (50 μg/mouse)

Row | Substance | number of mice survived until Day 70 without increasing tumor size [1] | mice survived ([2]; read against Day 40 of the preceding sentence, adjuvant admixed with PIA peptide (unless stated) s.c. Day 8 and Day 15) | effect of extending survival time ([3]; Groups 2 and 3 compared to Group 1 (IFA), Group 4 compared to Groups 1, 2 and 3) | day on which five mice all died ([3]; adjuvant admixed with gp100 peptide 50 μg s.c. Day 5 and Day 12) [days] | mice died up to Day 40 ([2]; s.c. injection Day 8 and Day 15)
1 | Polyinosinic:polycytidylic acid [Poly I:C] | 1 | Four out of 5 | a significant effect of extending survival time was not observed | 35 | –
2 | LPYLGWLVF [PIA peptide alone] | – | – | – | – | 5 out of 5
